As a reminder, the IC50 is the concentration that inhibits the measured activity by half. A word on the EC50: it is the concentration that produces a half-maximal response. As a reminder, the AC50 is the midpoint of the concentration-response curve, whichever way the signal moves.

The structures appear in SMILES notation. Activity calls are given as the source filed them. Cut-off read from the data, not from the text of the source, for most assays here: actives have a measured EC50 and inactives only a lower limit.

Among the data in ChEMBL document CHEMBL1201862, “PubChem BioAssay data set” (2004) are IC50, EC50 and AC50 values, retold here.

Assay [1] has as its target T1, Fatty acid synthase (Homo sapiens, UniProt P49327). As to the kind of experiment: FAS thioesterase domain inhibitors, dose response, biochemical, endpoint fluorescence intensity, uHTS hits (AID 624327).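 Note: fluorescence from hydrolysis of an O-methyl fluorescein acyl ester substrate by the enzyme.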 It counts as functional.
Assay [2] deals with T1, Fatty acid synthase. As to the kind of experiment: FAS thioesterase domain inhibitors, dose response, biochemical, kinetic fluorescence intensity (AID 624326).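 Note: rate of fluorescence rise from hydrolysis of a fluorogenic O-methyl fluorescein ester substrate.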 It counts as functional.
Assay [3] concerns the target T2, Rac GTPase-activating protein 1 (Homo sapiens, UniProt Q9H0H5).
T2 sequence (Q9H0H5 whole entry): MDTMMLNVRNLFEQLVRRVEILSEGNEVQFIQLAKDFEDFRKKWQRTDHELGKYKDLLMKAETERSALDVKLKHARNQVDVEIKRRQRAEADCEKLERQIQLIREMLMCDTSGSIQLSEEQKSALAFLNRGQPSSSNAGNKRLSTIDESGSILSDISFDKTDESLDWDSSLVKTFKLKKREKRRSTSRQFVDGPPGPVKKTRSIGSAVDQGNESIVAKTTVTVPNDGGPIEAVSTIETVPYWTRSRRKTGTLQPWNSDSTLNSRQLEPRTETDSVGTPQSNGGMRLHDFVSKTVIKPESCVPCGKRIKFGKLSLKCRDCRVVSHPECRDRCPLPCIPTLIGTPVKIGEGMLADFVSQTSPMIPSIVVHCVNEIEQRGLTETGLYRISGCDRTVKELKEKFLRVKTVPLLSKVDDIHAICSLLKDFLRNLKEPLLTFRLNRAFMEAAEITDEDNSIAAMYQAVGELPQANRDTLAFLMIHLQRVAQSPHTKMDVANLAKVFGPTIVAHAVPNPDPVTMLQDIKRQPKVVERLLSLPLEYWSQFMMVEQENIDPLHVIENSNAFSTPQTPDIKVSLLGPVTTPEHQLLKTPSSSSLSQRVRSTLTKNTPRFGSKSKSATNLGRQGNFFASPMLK
As to the kind of experiment: MgcRacGAP GTPase-activating activity inhibitors, confirmation, biochemical, ADP Hunter fluorescence, primary and confirmatory (AID 624330). It counts as functional.

Assay [4] is described as follows: inhibitors of intracellular T. cruzi replication, confirmation, NIH3T3 host cells, beta-gal luminescence (AID 2044).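 Note: intracellular parasites grown in NIH/3T3 mouse fibroblasts as host cells; luminescent beta-galactosidase reporter signal from transgenic T. cruzi replicating inside host cells; inhibitors lower the luminescence signal.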 The format is functional, cell-based.
Assay [5] is described as follows: cytotoxicity toward NIH3T3 fibroblasts, dose response, counter-screen, cell-based, ATP luminescence, mouse fibroblasts (AID 2010).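 Note: cells exposed to compound for about 90 hours before reading.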 It counts as functional.
Assay [6] is described as follows: C. albicans growth with fluconazole, confirmation, fluorescence, retest (AID 2467). It counts as functional, cell-based.
Assay [7] is described as follows: NIH-3T3 fibroblast cytotoxicity, dose response, cytotoxicity control, cell-based, fluorescence, Alamar Blue, secondary assay (AID 2327).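 Note: NIH-3T3 mouse fibroblasts cultured with fluconazole at 8 µg/mL.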 The format is functional. (In general: Alamar Blue is a resazurin reagent that responds to reducing activity.)
Assay [8] is described as follows: Luminescence Cell-Based Dose Confirmation HTS to Identify Activators of 5'UTR Stem-Loop Driven Alpha-Synuclein mRNA Translation in H4 Neuroglioblastoma Cells. [Related pubchem assays: 1829 (Project Summary), 1814 (Primary HTS)]. The format is functional.
Assay [9] in a line: Luminescence Cell-Based Dose Response HTS to Identify Activators of Luciferase Translation or Activity in H4 […] Cells. [Related pubchem assays: 1829 (Project Summary), 1814 (Primary HTS)]. It counts as functional.
The next assay concerns H4. Kind of assay: Luminescence Cell-Based Dose Response HTS to Identify Activators of 5'UTR Stem-Loop Driven Prion Protein mRNA Translation in H4 Neuroglioblastoma Cells. [Related pubchem assays: 1829 (Project Summary), 1814 (Primary HTS)]. It counts as functional. The conditions noted are these: Homo sapiens.
The target in assay [10] is T3, Replicative DNA helicase DnaB (Mycobacterium tuberculosis, UniProt P9WMR3).
T3 sequence (P9WMR3 whole entry): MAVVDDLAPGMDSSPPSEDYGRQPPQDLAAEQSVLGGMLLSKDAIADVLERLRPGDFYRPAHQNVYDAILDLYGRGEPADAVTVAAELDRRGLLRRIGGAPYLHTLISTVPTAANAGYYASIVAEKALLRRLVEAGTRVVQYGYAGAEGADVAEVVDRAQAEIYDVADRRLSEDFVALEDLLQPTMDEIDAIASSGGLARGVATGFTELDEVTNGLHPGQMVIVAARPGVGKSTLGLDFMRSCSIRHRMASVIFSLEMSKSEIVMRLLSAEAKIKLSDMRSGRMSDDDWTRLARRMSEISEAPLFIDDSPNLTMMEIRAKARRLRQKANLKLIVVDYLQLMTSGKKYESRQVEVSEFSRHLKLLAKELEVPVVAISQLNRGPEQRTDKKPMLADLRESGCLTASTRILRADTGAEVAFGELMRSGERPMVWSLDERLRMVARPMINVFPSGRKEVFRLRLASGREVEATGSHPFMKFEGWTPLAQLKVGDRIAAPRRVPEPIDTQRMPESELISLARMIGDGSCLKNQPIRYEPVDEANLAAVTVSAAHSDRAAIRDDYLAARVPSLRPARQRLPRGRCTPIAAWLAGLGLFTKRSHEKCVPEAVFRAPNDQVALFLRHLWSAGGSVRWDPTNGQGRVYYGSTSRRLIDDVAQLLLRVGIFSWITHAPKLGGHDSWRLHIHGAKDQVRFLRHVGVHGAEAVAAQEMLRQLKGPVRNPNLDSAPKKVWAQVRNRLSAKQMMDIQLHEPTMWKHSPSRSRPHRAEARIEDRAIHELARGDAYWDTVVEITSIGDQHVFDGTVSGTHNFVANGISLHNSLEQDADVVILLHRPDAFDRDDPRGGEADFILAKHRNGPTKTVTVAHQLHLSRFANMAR
As to the kind of experiment: DnaB intein splicing inhibitors, dose response, biochemical, cell-free fluorescence (AID 449749). The format is functional.

For the next assay, the target named is T4, Protein RecA (Mycobacterium tuberculosis, UniProt P9WHJ3).
T4 sequence (P9WHJ3 whole entry): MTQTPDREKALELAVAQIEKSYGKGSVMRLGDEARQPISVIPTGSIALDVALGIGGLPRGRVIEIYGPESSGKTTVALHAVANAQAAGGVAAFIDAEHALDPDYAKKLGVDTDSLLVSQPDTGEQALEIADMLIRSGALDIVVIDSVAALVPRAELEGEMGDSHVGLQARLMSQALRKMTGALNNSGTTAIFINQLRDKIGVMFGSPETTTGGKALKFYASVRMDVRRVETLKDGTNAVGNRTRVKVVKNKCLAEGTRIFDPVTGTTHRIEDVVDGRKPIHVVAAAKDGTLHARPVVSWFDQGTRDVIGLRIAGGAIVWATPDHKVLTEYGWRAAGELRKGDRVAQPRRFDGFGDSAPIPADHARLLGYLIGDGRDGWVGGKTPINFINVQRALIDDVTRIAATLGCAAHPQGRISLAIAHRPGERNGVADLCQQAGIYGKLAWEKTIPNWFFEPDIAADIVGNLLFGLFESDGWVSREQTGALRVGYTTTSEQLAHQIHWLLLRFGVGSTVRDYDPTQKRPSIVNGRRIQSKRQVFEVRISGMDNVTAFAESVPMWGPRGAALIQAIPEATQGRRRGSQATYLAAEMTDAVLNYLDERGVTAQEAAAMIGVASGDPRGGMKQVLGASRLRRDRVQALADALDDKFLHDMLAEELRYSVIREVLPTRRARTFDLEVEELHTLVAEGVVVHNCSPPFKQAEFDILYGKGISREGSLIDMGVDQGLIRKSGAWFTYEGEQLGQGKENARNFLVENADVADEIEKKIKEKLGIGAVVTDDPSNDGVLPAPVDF
Kind of assay: Fluorescence Cell-Free Homogeneous Dose Retest to Identify Inhibitors of RecA-Intein Splicing Activity. [Related pubchem assays (depositor defined):AID2097, AID2223, AID489010, AID492950]. It counts as functional.

T1 sequence (P49327 whole entry, the tested form may be a part): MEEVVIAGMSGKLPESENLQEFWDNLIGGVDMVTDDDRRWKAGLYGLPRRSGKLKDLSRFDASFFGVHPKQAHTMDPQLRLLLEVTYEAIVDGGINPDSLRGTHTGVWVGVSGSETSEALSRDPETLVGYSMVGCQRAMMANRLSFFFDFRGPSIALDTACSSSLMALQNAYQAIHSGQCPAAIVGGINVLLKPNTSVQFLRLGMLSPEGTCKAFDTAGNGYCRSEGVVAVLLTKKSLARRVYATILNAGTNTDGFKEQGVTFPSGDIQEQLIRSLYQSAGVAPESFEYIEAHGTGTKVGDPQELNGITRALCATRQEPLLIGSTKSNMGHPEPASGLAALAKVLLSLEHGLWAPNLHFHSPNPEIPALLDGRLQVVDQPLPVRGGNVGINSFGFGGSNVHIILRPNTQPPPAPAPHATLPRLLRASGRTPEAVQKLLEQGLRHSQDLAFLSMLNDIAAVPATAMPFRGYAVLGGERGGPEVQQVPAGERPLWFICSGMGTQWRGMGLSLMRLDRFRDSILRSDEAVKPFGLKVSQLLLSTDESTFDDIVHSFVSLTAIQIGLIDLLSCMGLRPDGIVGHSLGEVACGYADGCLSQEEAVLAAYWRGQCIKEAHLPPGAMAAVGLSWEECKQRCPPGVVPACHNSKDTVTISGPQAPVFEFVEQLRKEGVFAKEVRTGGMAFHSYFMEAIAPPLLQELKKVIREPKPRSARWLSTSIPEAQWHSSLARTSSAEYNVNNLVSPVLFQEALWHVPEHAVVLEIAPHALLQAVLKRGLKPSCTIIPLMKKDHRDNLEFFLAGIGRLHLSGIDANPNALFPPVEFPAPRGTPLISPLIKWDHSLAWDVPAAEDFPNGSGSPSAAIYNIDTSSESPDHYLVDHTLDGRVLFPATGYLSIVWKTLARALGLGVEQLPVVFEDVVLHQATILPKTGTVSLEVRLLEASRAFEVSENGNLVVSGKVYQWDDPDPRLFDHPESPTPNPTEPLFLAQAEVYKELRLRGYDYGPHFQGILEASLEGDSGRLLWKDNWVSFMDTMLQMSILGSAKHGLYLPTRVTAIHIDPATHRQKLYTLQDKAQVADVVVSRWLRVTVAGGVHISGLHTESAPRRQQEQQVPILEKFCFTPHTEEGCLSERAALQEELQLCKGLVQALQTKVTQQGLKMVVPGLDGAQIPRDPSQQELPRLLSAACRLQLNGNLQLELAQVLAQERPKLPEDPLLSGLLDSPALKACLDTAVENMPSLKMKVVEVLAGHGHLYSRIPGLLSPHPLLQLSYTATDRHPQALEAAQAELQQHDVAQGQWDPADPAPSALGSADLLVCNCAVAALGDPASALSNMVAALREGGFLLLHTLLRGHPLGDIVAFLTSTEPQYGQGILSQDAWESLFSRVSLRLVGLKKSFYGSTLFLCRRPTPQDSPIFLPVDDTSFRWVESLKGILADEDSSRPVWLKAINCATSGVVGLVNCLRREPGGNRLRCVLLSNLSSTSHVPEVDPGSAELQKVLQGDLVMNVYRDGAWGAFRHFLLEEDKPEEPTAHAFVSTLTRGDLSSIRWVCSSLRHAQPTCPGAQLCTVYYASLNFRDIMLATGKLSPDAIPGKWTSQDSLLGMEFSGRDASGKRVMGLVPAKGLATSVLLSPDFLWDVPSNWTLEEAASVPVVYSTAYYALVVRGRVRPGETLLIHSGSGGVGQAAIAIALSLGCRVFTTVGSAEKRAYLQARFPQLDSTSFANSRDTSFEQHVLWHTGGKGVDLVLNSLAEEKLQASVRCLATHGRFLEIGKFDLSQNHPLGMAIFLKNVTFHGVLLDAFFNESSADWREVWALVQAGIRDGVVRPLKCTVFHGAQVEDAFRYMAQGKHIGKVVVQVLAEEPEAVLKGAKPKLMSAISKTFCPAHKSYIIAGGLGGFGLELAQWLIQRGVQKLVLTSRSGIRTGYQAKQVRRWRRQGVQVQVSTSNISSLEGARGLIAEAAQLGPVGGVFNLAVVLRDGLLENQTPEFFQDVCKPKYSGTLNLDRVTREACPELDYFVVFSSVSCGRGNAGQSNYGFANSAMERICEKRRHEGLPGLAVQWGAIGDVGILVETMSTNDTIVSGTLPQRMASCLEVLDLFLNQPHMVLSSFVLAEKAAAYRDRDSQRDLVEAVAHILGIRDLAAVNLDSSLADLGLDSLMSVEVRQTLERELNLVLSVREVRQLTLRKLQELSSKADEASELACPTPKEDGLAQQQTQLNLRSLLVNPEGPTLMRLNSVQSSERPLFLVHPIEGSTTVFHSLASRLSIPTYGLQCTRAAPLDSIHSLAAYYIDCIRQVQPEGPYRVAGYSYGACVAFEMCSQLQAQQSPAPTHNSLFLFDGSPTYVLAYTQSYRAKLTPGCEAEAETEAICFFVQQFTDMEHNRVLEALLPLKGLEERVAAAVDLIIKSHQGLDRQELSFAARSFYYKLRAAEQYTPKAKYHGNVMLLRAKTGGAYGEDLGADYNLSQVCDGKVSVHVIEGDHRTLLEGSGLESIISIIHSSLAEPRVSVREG

Consider `COc1ccccc1NC(=O)c1ccccc1S(=O)(=O)c1ccc([N+](=O)[O-])cc1`, for which the IC50 was 14.9 µM (active) on Fatty acid synthase [1] and 8.19 µM (active) on Fatty acid synthase [2].

`CCN1CCN(CCCOc2ccc(Cl)cc2Br)CC1`: in [3], the IC50 is 68.8 µM (active). The EC50 in [4] is 1.6 µM (active); in [5], 32.5 µM (active).

Regarding `O=C(NNc1ccc(Cl)cc1)c1c(F)cccc1Cl`, the EC50 in [6] is > 38 µM (not active); in [7], > 150 µM (inactive).

With `Cc1c(Br)c([N+](=O)[O-])nn1CC(=O)Nc1ccc(C(C)C)cc1`, the IC50 on Fatty acid synthase [1] is 3.18 µM (active); at Fatty acid synthase [2], 6.92 µM (active).

`O=C(NC1=NCCS1)c1ccc(-c2ccc(Cl)cc2)o1`: the EC50 in [8] is 21.4 µM (active); in assay [9], 0.306 µM (active).

In the case of `CN(C)/C=C1\NC(=S)N(c2ccccc2)C1=O`, in assay [3], the IC50 is 65.4 µM (active).

As to `O=C(NCCCc1ccccc1)c1ccc([N+](=O)[O-])cc1Cl`, the IC50 is 1.25 µM (active) on Fatty acid synthase [1] and 1.31 µM (active) at Fatty acid synthase [2].

Regarding `CN1CCN(/N=C/c2nc(-c3ccc(Cl)cc3)n3ccccc23)CC1`, the IC50 in assay [3] is 27.1 µM (active).

For the compound `COc1ccc(-c2ccc(=O)n(CC(=O)Nc3cccc(O)c3)n2)cc1OC`, the results for the EC50 in assay [6] and in assay [7] were > 38 µM (not active) and > 150 µM (inconclusive), respectively.

With `CCn1c(-c2ccccc2)cs/c1=N\c1ccc(O)cc1`, the IC50 in [3] is 31.7 µM (active).

`O=C(CN1CCN(c2ccc(O)cc2)CC1)Nc1ccc2c(c1)OCCCO2`: the IC50 in assay [3] is 49.7 µM (active).

For `Cc1cccc(NC(=O)c2cc([N+](=O)[O-])ccc2N2CCN(C)CC2)c1`, the IC50 on Fatty acid synthase [1] is 8.93 µM (active); at Fatty acid synthase [2] it was 11.3 µM (active).

In the case of `CC(=O)c1cnc2nc(SCc3ccccc3)nn2c1C`, the EC50 in assay [8] was 0.116 µM (active); in [9], 0.131 µM (inconclusive); with H4 it was 74.8 µM (active).

For the compound `CCc1nnc(NC(=O)C23CC4CC(CC(C4)C2)C3)s1`, the EC50 in [8] was 19 µM (active); in [9], 45.6 µM (active); in the assay on H4 it was 8.2 µM (active).

Take `Cc1cc(C)nc(SC2=CS(=O)(=O)c3ccccc32)n1`: the EC50 in [8] is 12.1 µM (active); in the assay on H4 it was > 120 µM (not active).

On to `O=[N+]([O-])c1ccc(SNc2ccccc2)c([N+](=O)[O-])c1`, for which the IC50 at Fatty acid synthase [1] was 10.4 µM (active); on Fatty acid synthase [2], 9.38 µM (active).

As to `C/C(CC(=O)Nc1ccccc1[N+](=O)[O-])=N\NC(=O)COc1ccccc1C`, the AC50 in [10] was 10.5 µM (active). For the same compound, the EC50 on Protein RecA is 3.85 µM (active).

For `Cc1ccc(-c2noc(-c3ccccc3C(=O)N3CCOCC3)n2)cc1`, the AC50 in assay [10] was 196 µM (active). Also, at Protein RecA, the EC50 was > 380 µM (inactive).

As for `Cc1cc(O)ccc1Nc1nc(-c2cccnc2)cs1`, the EC50 in assay [8] is 7.92 µM (active); in assay [9] it was 0.389 µM (active); in the assay on H4, 6.4 µM (active).

Consider `CC(=O)C1=C(O)C(=O)N(c2ccc(Br)cn2)C1c1ccc(Br)cc1` (stereo not drawn), for which the EC50 was > 120 µM (not active) in [8], 0.112 µM (active) in assay [9] and 0.987 µM (active) in the assay with H4.

With `Cc1nc(-c2ccc(S(=O)(=O)Oc3ccccc3Cl)s2)cs1`, the EC50 in [8] is 13 µM (active); in [9], 12 µM (active); in the assay with H4 it was 2.84 µM (active).

On to `Nc1nn2c(-c3ccccc3)cc(O)nc2c1N=Nc1ccc(O)cc1`, for which the IC50 in assay [3] is 60.1 µM (active). The AC50 in [10] is 3.91 µM (active). The EC50 at Protein RecA is 1.88 µM (active).

Regarding `O=C(CN1CCCCC1)Nc1scc2c1c(=O)oc1ccccc12`, the EC50 in [8] is > 120 µM (not active); in assay [9], 16.1 µM (active); with H4, 59.7 µM (active).

For `O=c1c2ccccc2cnn1CCOc1cccc(Br)c1`, the values for the concentration giving a half-maximal response (EC50) (in assay [8]; in assay [9]; with H4) were 27.5 µM (active), 33.9 µM (active) and 6.06 µM (active), respectively.

Take `COc1cccc(C2=NO[C@@H]3C(=O)N(c4ccc5c(c4)OCCO5)C(=O)[C@H]23)c1OC`: the EC50 (in assay [8]; in assay [9]; in the assay on H4) was > 120 µM (not active) each time.

Turning to `Nc1ccc(S(=O)(=O)Nc2nccc(/C=C/c3ccc(Cl)cc3Cl)n2)cc1`, the EC50 in assay [8] was > 120 µM (not active); in assay [9], 13.6 µM (active); in the assay on H4 it was > 120 µM (not active).

Take `COc1cc(/C=N/NC(=O)c2cc[n+]([O-])cc2)ccc1O`: the IC50 in [3] was 32.7 µM (active).

For `COc1cc(C)c(Cl)c(C)c1S(=O)(=O)NC1CC(C)(C)NC(C)(C)C1`, the figures for the EC50 (in [8]; in assay [9]; in the assay with H4) were 15.2 µM (active), > 120 µM (not active) and > 120 µM (not active), respectively.

With `COc1ccc2c(c1)C(=C(C#N)C#N)C(=O)N2CCc1ccccc1`, in assay [10], the AC50 was 3.97 µM (active). In addition, the EC50 at Protein RecA was 21.2 µM (active).

For `CCN1CCN(CCCOc2ccccc2-c2ccccc2)CC1`, the half-inhibitory concentration (IC50) in [3] is 96.9 µM (active).

Regarding `Cc1ccc(NC(=O)CSc2nnc([C@@H](N)Cc3c[nH]c4ccccc34)o2)c(C)c1`, the EC50 is > 38 µM (not active) in assay [6] and > 150 µM (inactive) in [7].
